Where a SMILES comes first, the peptide text is derived from it. The star is where a group is joined. X1 = CC(C)CCC[C@@H](C)[C@H]1CC[C@H]2[C@@H]3CC=C4C[C@@H](OC(=O)C*)CC[C@]4(C)[C@H]3CC[C@]12C

Data set [1] concerns HIV-HXB2.
The test system of data set [2] is HIV-HXB2. As to the kind of experiment: pre-incubation of peptide with P4-2/R5 cells with/without wash, then HIV-HXB2 infection. The data set is classed as cell-based, HIV-1. As to conditions: with wash versus no wash.
Procedure: After 48 h, the antiviral activities of the residual peptides that survive the washing steps were determined by measuring the f3-galactosidase activities within lysed cells as described above.
Data set [3] can be described thus: pharmacokinetics after intraperitoneal injection into the mouse. The note with it: ip. In kind it is in vivo. The text has this:
Effect of lipid derivatization on the pharmacokinetic properties of C34-chol. In addition to providing improved antiviral potency, derivatization with cholesterol also extends the half-life of the peptide in vivo.

Another data set concerns multiple HIV-1 isolates. Description: single-cycle infectivity assay across the panel of viral strains. As to conditions: variety of viral strains.
A further data set concerns HIV-1 (HXB2). The data set is classed as cell-based. The note with it: read-out: IC50 antiviral activity. The text has this: The antiviral activity of a peptide from the membrane-proximal external region (MPER) of gp41, which also includes the epitope of monoclonal antibody (MAb) 2F5, […] […] Accordingly, when peptide […] […] Moreover, the nature of the lipid was important, since a bis-Lys(N^ε-Palmitoyl) group was ineffective. Details of the assay used can be found in Joyce et al, J. Biol Chem., 2002, 277, 45811-45820.

Procedure for multiple HIV-1 isolates: HIV-1 Infectivity Assay (31). P4-2/R5 cells (HeLa cells expressing endogenous CXCR4 and stably transfected to express CD4 and CCR5 which also contain an integrated β-galactosidase reporter gene under control of an HIV LTR promoter) maintained in phenol red-free Dulbecco's modified Eagle's medium, 10% fetal bovine serum, 1% penicillin/streptomycin were seeded in 96-well plates at 2.5×10^3 cells/well and infected the following day with the HXB2 strain (and a variety of other strains in some cases) of HIV-1 (Advanced Biotechnology Inc., Bethesda, Md.) in the presence of titrations of the test inhibitory peptides at 37° C. After 48 h incubation with both virus and inhibitory peptides, cells were lysed and β-galactosidase was detected using Gal Screen™ chemiluminescent substrate (Applied Biosystems, Foster City, Calif.) according to the manufacturer's instructions. Data were obtained using a Dynex luminometer and IC50 values were calculated by KaleidaGraph.

As for `CCCCCCCCCCCCCCCC(=O)NCCCC[C@H](NC(=O)CNC(=O)[C@H](CO)NC(=O)CNC(=O)[C@H](CC(C)C)NC(=O)[C@H](CC(C)C)NC(=O)[C@H](CCC(=O)O)NC(=O)[C@H](CCC(N)=O)NC(=O)[C@H](CCC(=O)O)NC(=O)[C@H](CC(N)=O)NC(=O)[C@H](CCCCN)NC(=O)[C@H](CCC(=O)O)NC(=O)[C@H](CCC(N)=O)NC(=O)[C@H](CCC(N)=O)NC(=O)[C@H](CC(N)=O)NC(=O)[C@H](CCC(N)=O)NC(=O)[C@H](CO)NC(=O)[C@H](CCC(=O)O)NC(=O)[C@H](CCC(=O)O)NC(=O)[C@@H](NC(=O)[C@H](CC(C)C)NC(=O)[C@H](CO)NC(=O)[C@H](Cc1c[nH]cn1)NC(=O)[C@@H](NC(=O)[C@H](CC(C)C)NC(=O)[C@H](CO)NC(=O)[C@@H](NC(=O)[C@H](Cc1ccc(O)cc1)NC(=O)[C@H](CC(N)=O)NC(=O)[C@H](CC(N)=O)NC(=O)[C@@H](NC(=O)[C@H](CCC(=O)O)NC(=O)[C@H](CCCNC(=N)N)NC(=O)[C@H](CC(=O)O)NC(=O)[C@H](Cc1c[nH]c2ccccc12)NC(=O)[C@H](CCC(=O)O)NC(=O)[C@H](CCSC)NC(=O)[C@H](Cc1c[nH]c2ccccc12)NC(C)=O)[C@@H](C)CC)[C@@H](C)O)[C@@H](C)CC)[C@@H](C)CC)C(N)=O` [Peptide C34-Pam], in the data set on HIV-HXB2 [1], the “antiviral activity relative to underivatized C34” value was “comparable activity to underivatized C34”.
As to enfuvirtide, the 50% inhibitory concentration (IC50) with HIV-HXB2 [1] (read-out: IC50 viral infectivity, mean ± SEM of three independent experiments (Table 2)) was found to be 0.692 ± 0.245 nM.
With `CC[C@H](C)[C@H](NC(=O)[C@H](CC(C)C)NC(=O)[C@H](CO)NC(=O)[C@H](Cc1c[nH]cn1)NC(=O)[C@@H](NC(=O)[C@H](CC(C)C)NC(=O)[C@H](CO)NC(=O)[C@@H](NC(=O)[C@H](Cc1ccc(O)cc1)NC(=O)[C@H](CC(N)=O)NC(=O)[C@H](CC(N)=O)NC(=O)[C@@H](NC(=O)[C@H](CCC(=O)O)NC(=O)[C@H](CCCNC(=N)N)NC(=O)[C@H](CC(=O)O)NC(=O)[C@H](Cc1c[nH]c2ccccc12)NC(=O)[C@H](CCC(=O)O)NC(=O)[C@H](CCSC)NC(=O)[C@H](Cc1c[nH]c2ccccc12)NC(=O)CNC(=O)[C@H](CO)NC(=O)CNC(=O)[C@H](CSCC(=O)O[C@H]1CC[C@@]2(C)C(=CC[C@H]3[C@@H]4CC[C@H]([C@H](C)CCCC(C)C)[C@@]4(C)CC[C@@H]32)C1)NC(C)=O)[C@@H](C)CC)[C@@H](C)O)[C@@H](C)CC)C(=O)N[C@@H](CCC(=O)O)C(=O)N[C@@H](CCC(=O)O)C(=O)N[C@@H](CO)C(=O)N[C@@H](CCC(N)=O)C(=O)N[C@@H](CC(N)=O)C(=O)N[C@@H](CCC(N)=O)C(=O)N[C@@H](CCC(N)=O)C(=O)N[C@@H](CCC(=O)O)C(=O)N[C@@H](CCCCN)C(=O)N[C@@H](CC(N)=O)C(=O)N[C@@H](CCC(=O)O)C(=O)N[C@@H](CCC(N)=O)C(=O)N[C@@H](CCC(=O)O)C(=O)N[C@@H](CC(C)C)C(=O)N[C@@H](CC(C)C)C(N)=O` [Chol-C34], the “decrease of antiviral activity compared to underivatized C34” value with HIV-HXB2 [1] (cholesterol at the N-terminus) was determined as 50 fold.
As for `CC[C@H](C)[C@H](NC(=O)[C@H](CC(C)C)NC(=O)[C@H](CO)NC(=O)[C@H](Cc1c[nH]cn1)NC(=O)[C@@H](NC(=O)[C@H](CC(C)C)NC(=O)[C@H](CO)NC(=O)[C@@H](NC(=O)[C@H](Cc1ccc(O)cc1)NC(=O)[C@H](CC(N)=O)NC(=O)[C@H](CC(N)=O)NC(=O)[C@@H](NC(=O)[C@H](CCC(=O)O)NC(=O)[C@H](CCCNC(=N)N)NC(=O)[C@H](CC(=O)O)NC(=O)[C@H](Cc1c[nH]c2ccccc12)NC(=O)[C@H](CCC(=O)O)NC(=O)[C@H](CCSC)NC(=O)[C@H](Cc1c[nH]c2ccccc12)NC(C)=O)[C@@H](C)CC)[C@@H](C)O)[C@@H](C)CC)C(=O)N[C@@H](CCC(=O)O)C(=O)N[C@@H](CCC(=O)O)C(=O)N[C@@H](CO)C(=O)N[C@@H](CCC(N)=O)C(=O)N[C@@H](CC(N)=O)C(=O)N[C@@H](CCC(N)=O)C(=O)N[C@@H](CCC(N)=O)C(=O)N[C@@H](CCC(=O)O)C(=O)N[C@@H](CCCCN)C(=O)N[C@@H](CC(N)=O)C(=O)N[C@@H](CCC(=O)O)C(=O)N[C@@H](CCC(N)=O)C(=O)N[C@@H](CCC(=O)O)C(=O)N[C@@H](CC(C)C)C(=O)N[C@@H](CC(C)C)C(=O)NCC(=O)N[C@@H](CO)C(=O)NCC(=O)N[C@@H](CSCC(=O)O[C@H]1CC[C@@]2(C)C(=CC[C@H]3[C@@H]4CC[C@H]([C@H](C)CCCC(C)C)[C@@]4(C)CC[C@@H]32)C1)C(N)=O` [Peptide C34-Chol], the IC50 fold change in the data set on HIV-HXB2 [2] amounted to 7 fold. Moreover, in data set [3] ([…], 24 h, versus IC50 7 pM), the “plasma concentration at 24 h as multiple of the measured IC50” value is listed as over 500 fold. In data set [3] (plasma, 3.5 mg/kg), the AUC(0-t) stood at 11.5 µM·h, the Cmax amounted to 3100 nM and the Tmax stood at 4 h. Moreover, the CL/F in data set [3] (plasma, 3.5 mg/kg, read-out: CI/F) was found to be 0.6 mL/min/kg. For the same compound, the level at time molar at 24 h in data set [3] (plasma, intraperitoneal, 3.5 mg/kg, 24 h, read-out: plasma concentration still detectable after 24 h) is about 60 nM. In addition, in the data set with HIV-HXB2 [1], the “increase of antiviral potency over C34 and C34-Aceta” value is 50 fold; the “potency relative to enfuvirtide/FUZEON” value is about 100 fold. Moreover, in the data set with multiple HIV-1 isolates, the “breadth of antiviral response” value is on record as “comparable IC50 in all strains” and the “potency relative to underivatized or cys-alkylated C34 across the whole panel” value is on record as about 50 fold.
Take `CC(=O)N[C@@H](CCC(=O)O)C(=O)N[C@@H](CC(C)C)C(=O)N[C@@H](CC(C)C)C(=O)N[C@@H](CCC(=O)O)C(=O)N[C@@H](CC(C)C)C(=O)N[C@@H](CC(=O)O)C(=O)N[C@@H](CCCCN)C(=O)N[C@@H](Cc1c[nH]c2ccccc12)C(=O)N[C@@H](C)C(=O)N[C@@H](CO)C(=O)N[C@@H](CC(C)C)C(=O)N[C@@H](Cc1c[nH]c2ccccc12)C(=O)N[C@@H](CSCC(=O)O[C@H]1CC[C@@]2(C)C(=CC[C@H]3[C@@H]4CC[C@H]([C@H](C)CCCC(C)C)[C@@]4(C)CC[C@@H]32)C1)C(N)=O` (Ac-ELLELDKWASLWC(X1)-NH2): in the data set with HIV-1 (HXB2), the IC50 stood at 5850 nM.
